In patent US20070122352A1, “Inhalation Drug Combinations” (GLAXO GROUP LIMITED, priority 2001, published 2007):

Test system: HPA axis
Assay: 24-hour urinary cortisol excretion as a measure of HPA suppression
Assay type: in vivo, human
Details: 24 h post-dose urine, single dose, healthy subjects
Description: The below examples are used to exemplify the present invention and are in no way meant to narrow the scope of the invention. The examples compare the systemic pharmacokinetic and pharmacodynamic of a MDI made up of two drugs, namely, salmeterol and fluticasone propionate combined in a HFA propellant, namely 134a, with individual salmeterol and fluticasone propionate MDIs in a CFC propellant administered individually and with placebo (HFA 134a propellant alone). Healthy human subjects were given either salmeterol and fluticasone propionate in HFA 134a propellant, salmeterol in P11/P12, fluticasone propionate in P11/P12, or a placebo in HFA 134a propellant, in a randomized, single dose, crossover study. Potential side effects such as increased heart rate and QTc interval were measured. The levels of cortisol in the urine were also measured as a measure of HPA suppression. Twenty healthy human subjects were randomized into one of four treatment groups. […] Cortisol levels were determined from 500 μl of urine by automated immunochemiluminescence on the ASC-180 (Bayer Diagnostics) following preliminary extraction of the urine with dichloromethane. […] For untransformed parameters, the 90% (or 95%) confidence interval for the difference in least squares means was expressed as a ratio of the individual mean.

post-treatment geometric mean urinary cortisol excreted: 18.5 µg
Compound: CCC(=O)O[C@]1(C(=O)SCF)[C@H](C)C[C@H]2[C@@H]3C[C@H](F)C4=CC(=O)C=C[C@]4(C)[C@@]3(F)[C@@H](O)C[C@@]21C [fluticasone propionate, S-(fluoromethyl)6α,9-difluro-11β,17-dihydroxy-16α-methyl-3-oxoandrosta-1,4-diene-17β-carbothioate,17-propionate]
